Assay results published in the NIST ThermoML archive (doi:10.1016/j.jct.2013.07.026).
Several values for one entry are separate records, joined by “and”; a condition that tells them apart may be missing. Equal entries are not always repeated. Numbers after ± are expanded uncertainties.

Assays:
[1] = molar enthalpy of vaporization or sublimation; conditions: 298.15 K; Crystal; Static calorimetry
[2] = Crystal, Calculated from knudsen effusion weight loss

O=C(CCl)c1ccccc1 [2-chloroacetophenone]
molar enthalpy [1]: 21 ± 0.406 kcal/mol

O=C(CCl)c1ccc(Cl)cc1 [2,4'-dichloroacetophenone]
vapor or sublimation pressure ([2]; 301.2 K): 8.5e-05 ± 4e-06 kPa and 7.6e-05 ± 4e-06 kPa and 7.9e-05 ± 4e-06 kPa
vapor or sublimation pressure ([2]; 303.19 K): 9.9e-05 ± 5e-06 kPa and 0.000105 ± 5e-06 kPa and 0.000103 ± 5e-06 kPa
vapor or sublimation pressure ([2]; 305.1 K): 0.000133 ± 7e-06 kPa and 0.000131 ± 7e-06 kPa and 0.000134 ± 7e-06 kPa
vapor or sublimation pressure ([2]; 307.19 K): 0.000165 ± 8e-06 kPa and 0.000178 ± 9e-06 kPa
vapor or sublimation pressure ([2]; 309.18 K): 0.000218 ± 1.1e-05 kPa and 0.000214 ± 1.1e-05 kPa and 0.000221 ± 1.1e-05 kPa
vapor or sublimation pressure ([2]; 311.1 K): 0.00027 ± 1.4e-05 kPa and 0.000271 ± 1.4e-05 kPa and 0.000278 ± 1.4e-05 kPa
vapor or sublimation pressure ([2]; 313.19 K): 0.000344 ± 1.7e-05 kPa and 0.000341 ± 1.7e-05 kPa and 0.000359 ± 1.8e-05 kPa
vapor or sublimation pressure ([2]; 315.19 K): 0.000447 ± 2.2e-05 kPa and 0.000437 ± 2.2e-05 kPa and 0.000448 ± 2.2e-05 kPa
vapor or sublimation pressure ([2]; 317.1 K): 0.000561 ± 2.8e-05 kPa and 0.000553 ± 2.8e-05 kPa and 0.000562 ± 2.8e-05 kPa
vapor or sublimation pressure ([2]; 319.18 K): 0.000699 ± 3.5e-05 kPa and 0.000686 ± 3.4e-05 kPa and 0.000757 ± 3.8e-05 kPa
vapor or sublimation pressure ([2]; 321.15 K): 0.000903 ± 4.5e-05 kPa and 0.000911 ± 4.6e-05 kPa and 0.000875 ± 4.4e-05 kPa
vapor or sublimation pressure ([2]; 323.09 K): 0.001131 ± 0.00012 kPa and 0.001115 ± 0.00011 kPa and 0.001107 ± 0.00011 kPa
